Assay [1] deals with NCI-H146 cells (human small-cell lung cancer cell lines). In words: Cell-growth inhibition test: NCI-H146 cells. The class given is cell-based. Particulars: Homo sapiens, NCI-H146, read-out: Cell-Growth Inhibition Test: NCI-H146 Cells IC50 (nM). As to the method:
Under the following conditions, an in vitro cell-growth inhibition test was performed with respect to HEL cells (human acute myelocytic leukemia cell lines), NCI-H1417 cells (human small-cell lung cancer cell lines), and NCI-H146 cells (human small-cell lung cancer cell lines).
The cells with the compound of the present invention or with dimethylsulfoxide alone were cultured at 37° C. in a 5% carbon-dioxide-containing incubator for 5 days (HEL cells) or 10 days (NCI-H1417 cells and NCI-H146 cells). After culture, the plate was allowed to stand at room temperature for 30 minutes, and 100 μL of the supernatant was removed from each well to leave 100 μL of the cell culture solution. To each well containing the remaining 100 μL of the cell culture solution, the same amount of CellTiter-Glo 2.0 Assay (Promega, Cat #: G9242) was added. The microplate was shaken with a plate mixer for 1 minute and then allowed to stand in a dark place for 10 minutes. Thereafter, the luminescence intensity of viable cells in each well was measured using a microplate reader (PerkinElmer, EnSpire). […] Cell growth rate (%)=T/C×100 T: The luminescence intensity in a well to which the compound of the present invention was added (count per second) C: The luminescence intensity in a well to which dimethylsulfoxide alone was added (count per second)

The subject of assay [2] is HEL cells (human acute myelocytic leukemia cell lines). In words: cells. The settings on record: read-out: Cell-Growth Inhibition Test: HEL Cells IC50 (nM).
Assay [3] relates to NCI-H1417 cells (human small-cell lung cancer cell lines). Kind of assay: cells. Particulars: NCI-H1417, read-out: Cell-Growth Inhibition Test: NCI-H1417 Cells IC50 (nM).

IC50 data for 17 molecules are collected here from patent US11479563B2, “Biphenyl compound or salt thereof” (TAIHO PHARMACEUTICAL CO., LTD., priority 2017, dated 2022).

Structures can show the parent of a compound that is named as a salt.

With `N#Cc1ccc(-c2cc(C(=O)N3C4CCC3C(N)C4)ccc2-c2cc3nnn(CC4(O)CCC4)c3c(F)c2F)cc1F` [Example 254, 5′-((1S,2S,4R)-rel-2-amino-7-azabicyclo[2.2.1]heptane-7-carbonyl)-2′-(6,7-difluoro-1-((1-hydroxycyclobutyl)methyl)-1H-benzo[d][1,2,3]triazol-5-yl)-3-fluoro-[1,1′-biphenyl]-4-carbonitrile-isomer-X], the IC50 in assay [1] was 0.36 nM; in assay [2], 0.2 nM; in assay [3] it was 0.18 nM.
Regarding `N#Cc1ccc(-c2cc(C(=O)N3[C@@H]4CC[C@H]3C[C@@H](N)C4)ccc2-c2cc3nnn(CC4(O)CCC4)c3c(F)c2F)cc1F` [Example 256, 5′-((3-endo)-3-amino-8-azabicyclo[3.2.1]octane-8-carbonyl)-2′-(6,7-difluoro-1-((1-hydroxycyclobutyl)methyl)-1H-benzo[d][1,2,3]triazol-5-yl)-3-fluoro-[1,1′-biphenyl]-4-carbonitrile], the IC50 was 2.54 nM in assay [1], 1.31 nM in assay [2] and 0.94 nM in assay [3].
As for `N#Cc1ccc(-c2cc(C(=O)N3[C@@H]4CC[C@H]3C[C@@H](N)C4)ccc2-c2cc3nnn(CC4(O)CCC4)c3c(Cl)c2F)cc1F` [Example 259, 5′-((3-endo)-3-amino-8-azabicyclo[3.2.1]octane-8-carbonyl)-2′-(7-chloro-6-fluoro-1-((1-hydroxycyclobutyl)methyl)-1H-benzo[d][1,2,3]triazol-5-yl)-3-fluoro-[1,1′-biphenyl]-4-carbonitrile], the IC50 in assay [1] is 2.08 nM; in assay [2], 0.58 nM; in assay [3], 0.46 nM.
The like results for `N#Cc1ccc(-c2cc(C(=O)N3C4CCC3C(N)C4)ccc2-c2cc3nnn(CC4(O)CCC4)c3c(C(F)F)c2F)cc1F` [Example 260, 5′-((1S,2S,4R)-rel-2-amino-7-azabicyclo[2.2.1]heptane-7-carbonyl)-2′-(7-(difluoromethyl)-6-fluoro-1-((1-hydroxycyclobutyl)methyl)-1H-benzo[d][1,2,3]triazol-5-yl)-3-fluoro-[1,1′-biphenyl]-4-carbonitrile-isomer-X] were, in that order, 0.48 nM, 0.13 nM and 0.13 nM.
With `N#Cc1ccc(-c2cc(C(=O)N3C4CCC3C(N)C4)ccc2-c2cc3nnn(CC4(O)CCC4)c3c(C#N)c2F)cc1F` [Example 264, 5-(5-((1S,2S,4R)-rel-2-amino-7-azabicyclo[2.2.1]heptane-7-carbonyl)-4′-cyano-3′-fluoro-[1,1′-biphenyl]-2-yl)-6-fluoro-1-((1-hydroxycyclobutyl)methyl)-1H-benzo[d][1,2,3]triazole-7-carbonitrile-isomer-X], the IC50 in assay [1] came out at 0.96 nM; in assay [2], 0.84 nM; in assay [3] it was 0.3 nM.
As for `N#Cc1ccc(-c2cc(C(=O)N3[C@@H]4CC[C@H]3C[C@@H](N)C4)ccc2-c2cc3nnn(CC4(O)CCC4)c3c(C#N)c2F)cc1F` [Example 266, 5-(5-((3-endo)-3-amino-8-azabicyclo[3.2.1]octane-8-carbonyl)-4′-cyano-3′-fluoro-[1,1′-biphenyl]-2-yl)-6-fluoro-1-((1-hydroxycyclobutyl)methyl)-1H-benzo[d][1,2,3]triazole-7-carbonitrile], the IC50 in assay [1] is 17.5 nM; in assay [2], 4.63 nM; in assay [3] it was 1.85 nM.
The like results for `Cc1c(F)c(-c2ccc(C(=O)N3[C@@H]4CC[C@H]3C[C@@H](N)C4)cc2-c2ccc(C#N)c(F)c2)cc2nnn(CC3(O)CCC3)c12` [Example 272, 5′-((3-endo)-3-amino-8-azabicyclo[3.2.1]octane-8-carbonyl)-3-fluoro-2′-(6-fluoro-1-((1-hydroxycyclobutyl)methyl)-7-methyl-1H-benzo[d][1,2,3]triazol-5-yl)-[1,1′-biphenyl]-4-carbonitrile] were, in that order, 3.17 nM, 1.52 nM and 0.81 nM.
Take `CC(C)(O)Cn1nnc2cc(-c3ccc(C(=O)N4[C@@H]5CC[C@H]4C[C@@H](N)C5)cc3-c3ccc(C#N)c(F)c3)c(F)c(Br)c21` [Example 275, 5′-((3-endo)-3-amino-8-azabicyclo[3.2.1]octane-8-carbonyl)-2′-(7-bromo-6-fluoro-1-(2-hydroxy-2-methylpropyl)-1H-benzo[d][1,2,3]triazol-5-yl)-3-fluoro-[1,1′-biphenyl]-4-carbonitrile]: the IC50 in assay [1] turned out to be 1.78 nM; in assay [2], 0.99 nM; in assay [3], 0.59 nM.
The corresponding values for `CC(C)(O)Cn1nnc2cc(-c3ccc(C(=O)N4[C@@H]5CC[C@H]4C[C@@H](N)C5)cc3-c3ccc(C#N)c(F)c3)c(F)c(C3CC3)c21` [Example 281, 5′-((3-endo)-3-amino-8-azabicyclo[3.2.1]octane-8-carbonyl)-2′-(7-cyclopropyl-6-fluoro-1-(2-hydroxy-2-methylpropyl)-1H-benzo[d][1,2,3]triazol-5-yl)-3-fluoro-[1,1′-biphenyl]-4-carbonitrile] are 32.3 nM, 23.9 nM and 8.5 nM.
With `Cc1ccc(-c2ccc(CN3C4CCC3C(N)C4)cc2-c2ccc(C#N)c(F)c2)c(F)c1` [Example 283, 5′-(((1S,2S,4R)-rel-2-amino-7-azabicyclo[2.2.1]heptan-7-yl)methyl)-2″,3-difluoro-4″-methyl-[1,1′:2′,1″-terphenyl]-4-carbonitrile-isomer-X], the IC50 in assay [1] worked out at 11.1 nM; in assay [2] it was 0.79 nM; in assay [3] it was 2.1 nM.
For `CC(C)(O)Cn1nnc2cc(-c3ccc(CN4C5CCC4C(N)C5)cc3-c3ccc(C#N)c(F)c3)c(F)c(F)c21` [Example 285, 5′-(((1S,2S,4R)-rel-2-amino-7-azabicyclo[2.2.1]heptan-7-yl)methyl)-2′-(6,7-difluoro-1-(2-hydroxy-2-methylpropyl)-1H-benzo[d][1,2,3]triazol-5-yl)-3-fluoro-[1,1′-biphenyl]-4-carbonitrile-isomer-X dihydrochloride], the IC50 in assay [1] came to 0.49 nM; in assay [2], 0.046 nM; in assay [3] it was 0.09 nM.
As for `N#Cc1ccc(-c2cc(CN3C4CCC3C(N)C4)ccc2-c2cc3nnn(CC4(O)CCC4)c3c(Cl)c2F)cc1F` [Example 286, 5′-(((1S,2S,4R)-rel-2-amino-7-azabicyclo[2.2.1]heptan-7-yl)methyl)-2′-(7-chloro-6-fluoro-1-((1-hydroxycyclobutyl)methyl)-1H-benzo[d][1,2,3]triazol-5-yl)-3-fluoro-[1,1′-biphenyl]-4-carbonitrile-isomer-X dihydrochloride], the IC50 was 0.17 nM in assay [1], 0.036 nM in assay [2] and 0.083 nM in assay [3].
Regarding `CCC(O)(CC)Cn1nnc2cc(-c3ccc(CN4C5CCC4C(N)C5)cc3-c3ccc(C#N)c(F)c3)c(F)c(Cl)c21` [Example 288, 5′-(((1S,2S,4R)-rel-2-amino-7-azabicyclo[2.2.1]heptan-7-yl)methyl)-2′-(7-chloro-1-(2-ethyl-2-hydroxybutyl)-6-fluoro-1H-benzo[d][1,2,3]triazol-5-yl)-3-fluoro-[1,1′-biphenyl]-4-carbonitrile-isomer-X dihydrochloride], the IC50 in assay [1] was 1.29 nM; in assay [2] it was 0.062 nM; in assay [3], 0.22 nM.
`CC(C)(O)Cn1ccc2cc(-c3ccc(CN4C5CCC4C(N)C5)cc3-c3ccc(C#N)c(F)c3)c(F)cc21` [Example 289, 5′-(((1S,2S,4R)-rel-2-amino-7-azabicyclo[2.2.1]heptan-7-yl)methyl)-3-fluoro-2′-(6-fluoro-1-(2-hydroxy-2-methylpropyl)-1H-indol-5-yl)-[1,1′-biphenyl]-4-carbonitrile-isomer-X dihydrochloride]: the IC50 was 0.97 nM in assay [1], 0.038 nM in assay [2] and 0.094 nM in assay [3].
Consider `CC(C)(O)Cc1ccc(-c2ccc(CN3CC[C@H](N)C3)cc2-c2ccc(C#N)c(F)c2)c(F)c1` [Example 291, (S)-5′-((3-aminopyrrolidin-1-yl)methyl)-2″,3-difluoro-4″-(2-hydroxy-2-methylpropyl)-[1,1′:2′,1″-terphenyl]-4-carbonitrile dihydrochloride], for which the IC50 in assay [1] is 10.4 nM; in assay [2] it was 1.21 nM; in assay [3], 4.65 nM.
With `Cc1ccc(-c2ccc(C(C)N3C4CCC3C(N)C4)cc2-c2ccc(C#N)c(F)c2)c(F)c1` [Example 292, 5′-(1-((1S,2S,4R)-rel-2-amino-7-azabicyclo[2.2.1]heptan-7-yl)ethyl)-2″,3-difluoro-4″-methyl-[1,1′:2′,1″-terphenyl]-4-carbonitrile-isomer-X dihydrochloride], the IC50 in assay [1] was determined as 10.3 nM; in assay [2], 0.91 nM; in assay [3] it was 3.29 nM.
The like results for `CCC(O)(CC)Cn1nnc2cc(-c3ccc(CN4C5CCC4C(N)C5)cc3-c3ccc(C#N)c(F)c3)c(F)c(F)c21` [Example 293, 5′-(((1S,2S,4R)-rel-2-amino-7-azabicyclo[2.2.1]heptan-7-yl)methyl)-2′-(1-(2-ethyl-2-hydroxybutyl)-6,7-difluoro-1H-benzo[d][1,2,3]triazol-5-yl)-3-fluoro-[1,1′-biphenyl]-4-carbonitrile-isomer-X dihydrochloride] were, in that order, 0.08 nM, 0.081 nM and 0.22 nM.
